Experiments:
[1] = biological target: Hpk1 (Homo sapiens, UniProt Q92918); experiment: SLP76 phosphorylation assay (SLP76 pS376 in lysates of HEK293 cells engineered to express Hpk1 and SLP76); assay type: cell-based; conditions: HEK293 cells expressing Hpk1 and SLP76, 4 hours incubation; read-out: pSLP76 (HEK293) (pIC50) (converted)
Method: SLP76 Phosphorylation Assay
Hpk1 inhibition in cells was determined by detection of SLP76 phosphorylation at S376 in lysates from HEK293 cells engineered to express Hpk1 and SLP76. Serial dilutions of test compounds were prepared in cell culture medium and 20 μl was transferred into each well of a 96-well plate containing HEK293 cells in 180 μl of culture medium. After incubation for 4 hours at 37° C./5% CO2, the culture medium was removed, plates were put on ice and cells washed with cold Minimal Essential Medium before lysing in 90 μl of cold Mammalian Protein Extraction Reagent (Thermo Scientific, 78501) for 30 minutes on ice. The cell lysates were transferred to another 96-well plate, centrifuged 10 minutes at 3000 rcf (4° C.) and 30 μl transferred to a 96-well High-bind plate (MSD, L15XB-3). After coating overnight at 4° C., the cell lysate was removed, wells were washed with base buffer (TBS, 0.2% Tween-20), and blocking solution (base buffer containing 3% MSD blocker A) was added to each well for 1 hour at room temperature. The blocking solution was removed, the wells were washed with base buffer, and detection antibody (SLP76 pS376) was added in 25 μl base buffer containing 1% MSD blocker A to each well. After a 2 h incubation at room temperature, the detection antibody was removed, wells were washed four times with base buffer, 25 μl SULFO-TAG labeled goat anti-rabbit secondary antibody (MSD, R32AB-1) in base buffer containing 1% MSD blocker A was added to each well and left for 1 hour at room temperature. Wells were washed 4 times with base buffer, 150 μl Read Buffer T was added to each well, and the plates were read in a Mesoscale plate reader (MSD). IC50 values were determined by curve-fitting the electrochemiluminescent signals obtained from the lysates of HEK293 cells expressing Hpk1 and SLP76 treated with test compounds at various concentrations minus the signal obtained from HEK293 cells expressing SLP76 only.

[2] = biological target: T1, full-length human Hpk1 (Homo sapiens, UniProt Q92918); experiment: HPK1 kinase assay (ADP Glo Kinase Assay); assay type: biochemical; conditions: full-length human GST-Hpk1, ADP Glo, 75 μM ATP; read-out: Hpk1 biochemical (pIC50) (converted)
T1 construct: A recombinant fusion protein consisting of full-length human Hpk1; GST (N)
Method: Pharmacological Part HPK1 Kinase Assay
A recombinant fusion protein consisting of full-length human Hpk1 with an N-terminal Glutatione S-transferase (GST) tag was produced in a baculovirus/insect cell expression system. GST-Hpk1 protein was purified from cell lysates by glutathione sepharose affinity chromatography. Kinase inhibition was determined using the ADP Glo™ Kinase Assay kit (Promega, V9101). Test compounds were prepared by serial dilution in dimethyl sulfoxide (DMSO) and 0.1 μl of each dilution was spotted onto a 384-well white Proxiplate (Perkin Elmer, 6008289). 8 μl of kinase assay buffer (40 mM Tris pH 7.5, 2 mM dithiothreitol (DTT), 0.05% Bovine Serum Albumin, 5 mM MgCl2) containing Hpk1 protein was transferred to each well and incubated for 30-45 minutes at room temperature. The enzymatic reaction was started by adding 2 μl of kinase assay buffer containing 75 μM ATP. After 120 minutes, the reaction was stopped by adding 3 μl of ADP Glo™ reagent (Promega, V9101) and incubating 45 minutes at room temperature.

Chain of Hpk1 (Q92918 whole entry): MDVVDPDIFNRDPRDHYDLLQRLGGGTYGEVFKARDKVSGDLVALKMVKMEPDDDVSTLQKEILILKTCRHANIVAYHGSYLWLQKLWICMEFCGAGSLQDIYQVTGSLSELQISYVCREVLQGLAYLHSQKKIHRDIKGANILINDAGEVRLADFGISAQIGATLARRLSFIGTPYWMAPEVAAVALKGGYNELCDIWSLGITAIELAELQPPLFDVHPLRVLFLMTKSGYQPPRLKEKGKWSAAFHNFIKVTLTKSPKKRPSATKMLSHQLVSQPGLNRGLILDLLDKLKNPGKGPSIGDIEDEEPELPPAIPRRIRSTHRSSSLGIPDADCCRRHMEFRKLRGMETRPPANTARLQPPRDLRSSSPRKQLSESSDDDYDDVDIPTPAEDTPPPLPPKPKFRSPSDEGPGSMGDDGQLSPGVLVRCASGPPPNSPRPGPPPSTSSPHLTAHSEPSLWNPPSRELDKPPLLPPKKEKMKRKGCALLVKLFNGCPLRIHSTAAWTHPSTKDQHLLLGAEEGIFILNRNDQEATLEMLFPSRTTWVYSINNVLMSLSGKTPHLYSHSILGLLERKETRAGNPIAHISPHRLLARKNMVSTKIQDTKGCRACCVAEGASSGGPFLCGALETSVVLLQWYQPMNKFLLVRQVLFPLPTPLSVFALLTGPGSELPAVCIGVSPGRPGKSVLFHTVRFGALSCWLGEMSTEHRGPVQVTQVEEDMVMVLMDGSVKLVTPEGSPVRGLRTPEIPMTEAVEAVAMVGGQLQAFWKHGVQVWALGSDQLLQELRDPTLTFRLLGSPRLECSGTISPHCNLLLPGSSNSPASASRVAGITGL
T1 sequence (Q92918 whole entry, the tested form may be a part): as the sequence (Q92918 whole entry) above

Row | IC50 [1] [nM] | IC50 [2] [nM] | Compound
1 | 724 | 26.3 | CS(=O)(=O)N1CCC(c2ccc(-c3cnc(N)c(-c4ccnc(F)c4)c3)cc2[C@@H]2CCCN2)CC1 [Co. 98]
2 | – | 832 | Nc1ncc(-c2ccc(C3CCOCC3)c(CN3CCC(F)(F)C3)c2)cc1-c1ccncc1 [Co. 107]
3 | > 10000 | 603 | Nc1ncc(-c2ccc(C3CCOCC3)c([C@H]3CSCCN3)c2)cc1-c1ccnc(F)c1 (single isomer, unassigned) [Co. 103b]
4 | 5890 | 110 | CC(CO)CNC(=O)c1cc(-c2ccc(C3CCOCC3)c(CN(C)C)c2)cnc1N (stereo not shown) [Co. 111]
5 | 575 | 12.9 | C[C@H]1CN[C@H](c2cc(-c3cnc(N)c(-c4ccnc(F)c4)c3)ccc2C2CCOCC2)CO1 [Co. 94]
6 | > 10000 | 295 | Nc1ncc(-c2ccc(C3CCOCC3)c([C@@H]3CCCN3)c2)cc1C1CCS(=O)(=O)CC1 [Co. 102]
7 | 1230 | 35.5 | C[C@H]1CN[C@H](c2cc(-c3cnc(N)c(-c4cnn(C)c4)n3)ccc2C2CCOCC2)CO1 [Co. 90]
8 | > 10000 | 380 | Nc1ncc(-c2ccc(C3CCOCC3)c(CNC3COC3)c2)cc1-c1ccnc(F)c1 [Co. 105]
9 | – | 5750 | C[C@@H]1COC[C@H](c2cc(-c3cnc(N)c(-c4ccncc4)c3)ccc2C2CCOCC2)N1 (single isomer, unassigned) [Co. 83b]
10 | 7940 | 58.9 | Nc1ncc(-c2ccc(C3CCOCC3)c([C@@H]3CN4CCCC[C@H]4CN3)c2)cc1Br [Co. 104]
11 | 7590 | 117 | Nc1ncc(-c2ccc(C3CCOCC3)c(CN3CCCC3)c2)cc1-c1ccncc1 [Co. 108]
12 | 1100 | 47.9 | COc1cc(-c2ccc(C3CCOCC3)c([C@@H]3COCCN3)c2)cnc1N [Co. 87]
13 | 1950 | 7.76 | Nc1ncc(-c2ccc(C3CCOCC3)c([C@@H]3CSCCN3)c2)cc1-c1ccnc(F)c1 (single isomer, unassigned) [Co. 103a]
14 | 4170 | 112 | Nc1ncc(-c2ccc(C3CCOCC3)c([C@@H]3COCCN3)c2)cc1F [Co. 88]
15 | 692 | 3.72 | Nc1ncc(-c2ccc([C@H]3CCOC3)c([C@@H]3CCCN3)c2)cc1-c1ccnc(F)c1 (single isomer, unassigned) [Co. 101]
16 | – | 912 | Nc1ncc(-c2ccc(C3CCOCC3)c([C@H]3CC4(CC4)CN3)c2)cc1-c1ccnc(F)c1 (single isomer, unassigned) [Compound 5b]

Continued, molecule first:

Row | Compound | IC50 [1] [nM] | IC50 [2] [nM]
17 | Nc1ncc(-c2ccc(C3CCOCC3)c([C@@H]3CCCN3)c2)cc1Br [Co. 37] | 646 | 7.24
18 | Nc1ncc(-c2ccc(C3CCOCC3)c([C@@H]3CCCN3)c2)cc1-c1ccc(F)cc1 [Co. 62] | 1070 | 31.6
19 | Nc1ncc(-c2ccc(C3CCOCC3)c([C@@H]3CCCN3)c2)cc1-c1ccncc1 [Co. 25] | 427 | 9.77
20 | CO[C@H]1CC[C@@H](c2ccc(-c3cnc(N)c(-c4ccnc(F)c4)c3)cc2[C@@H]2CCCN2)CC1 [Co. 51] | 550 | 18.2
21 | [2H]c1cc(-c2cc(-c3ccc(C4CCOCC4)c([C@@H]4CCCN4)c3)cnc2N)ccn1 [Co. 64] | 380 | 17
22 | CN(C)Cc1cc(-c2cnc(N)c(-c3ccnc(N4CCNCC4)c3)c2)ccc1C1CCOCC1 [Co. 67] | 1660 | 46.8
23 | CN(C)Cc1cc(-c2cnc(N)c(-c3ccncc3)c2)ccc1C1CCOCC1 [Co. 73] | 1550 | 42.7
24 | CS(=O)(=O)n1cc(-c2cc(-c3ccc(C4CCOCC4)c([C@@H]4CCCN4)c3)cnc2N)cn1 [Co. 19] | 977 | 4.27
25 | Nc1ncc(-c2ccc(C3CCOCC3)c([C@@H]3CCCN3)c2)cc1-c1cncnc1 [Co. 3] | 5620 | 53.7
26 | Nc1ncc(-c2ccc(C3CCOCC3)c(C3CCCN3)c2)cc1-c1cc[n+]([O-])cc1 (stereo not shown) [Co. 66] | > 10000 | 85.1
27 | C[C@H]1CN[C@H](c2cc(-c3cnc(N)c(Br)c3)ccc2C2CCOCC2)CO1 [Co. 79] | 794 | 25.7
28 | CS(=O)(=O)N1CC=C(c2ccc(-c3cnc(N)c(-c4ccnc(F)c4)c3)cc2[C@@H]2CCCN2)CC1 [Co. 46] | 1020 | 35.5
29 | CC(=O)N1CC=C(c2ccc(-c3cnc(N)c(-c4ccnc(F)c4)c3)cc2[C@@H]2CCCN2)CC1 [Co. 47] | 1350 | 24.5
30 | Nc1ncc(-c2ccc(C3CCOCC3)c([C@@H]3CCCN3)c2)cc1-c1ccnc(Cl)c1 [Co. 17] | 1580 | 15.8
31 | Nc1ncc(-c2ccc(C3CCOCC3)c([C@@H]3CCCN3)c2)cc1-c1ccnc(C(F)F)c1 [Co. 34] | 1820 | 17.4
32 | Nc1ncc(-c2ccc(C3CCOCC3)c([C@H]3COCCN3)c2)cc1-c1ccncc1 [Co. 80b] | > 10000 | 3720
33 | Nc1ncc(-c2ccc(C3CCOCC3)c([C@@H]3CCCN3)c2)cc1-c1cc[nH]c(=O)c1 [Co. 57] | > 10000 | 26.3
34 | CN(C)Cc1cc(-c2cnc(N)c(-c3ccnc(NCCCO)c3)c2)ccc1C1CCOCC1 [Co. 75] | 2290 | 41.7

Row | Compound | IC50 [1] [nM] | IC50 [2] [nM]
35 | Nc1ncc(-c2ccc(C3CCOCC3)c([C@@H]3CCCN3)c2)cc1-c1ccnc(F)c1Cl [Co. 35] | 676 | 8.13
36 | N#Cc1cc(-c2cc(-c3ccc(C4CCOCC4)c([C@@H]4CCCN4)c3)cnc2N)ccn1 [Co. 61] | 3980 | 34.7
37 | Nc1ncc(-c2ccc(C3CCCCC3)c([C@@H]3CCCN3)c2)cc1-c1ccnc(F)c1 [Co. 38] | 1290 | 7.59
38 | [2H]c1cc(-c2cc(-c3ccc(C4CCOCC4)c([C@@H]4CCCN4)c3)cnc2N)cc([2H])n1 [Co. 65] | 1200 | 26.9
39 | Nc1ncc(-c2ccc(C3CCOCC3)c([C@@H]3CCCN3)c2)cc1-c1cnn2c1CCCC2 [Co. 18] | 1550 | 17.8
40 | N#Cc1ccc(-c2cnc(N)c(-c3ccnc(F)c3)c2)cc1[C@@H]1CCCN1 [Co. 60] | > 10000 | 251
41 | Nc1ncc(-c2ccc(C3CCOCC3)c([C@@H]3CCCN3)c2)cc1-c1cccnc1 [Co. 4] | 3720 | 42.7
42 | Nc1ncc(-c2ccc(C3CCOCC3)c([C@@H]3CCCN3)c2)cc1-c1ccnnc1 [Co. 33] | 2290 | 14.5
43 | Nc1ncc(-c2ccc(C3CCOCC3)c([C@H]3CC4(CC4)CN3)c2)cc1-c1ccncc1 (single isomer, unassigned) [Co. 8b] | 6920 | 135
44 | CN(C)Cc1cc(-c2cnc(N)c(-c3ccncn3)c2)ccc1C1CCOCC1 [Co. 77] | 2570 | 14.1
45 | Nc1ncc(-c2ccc(C3=CCSCC3)c([C@@H]3CCCN3)c2)cc1-c1ccnc(F)c1 [Co. 48] | 1320 | 25.1
46 | Nc1ncc(-c2ccc(N3CCOCC3)c(-c3nnc[nH]3)c2)cc1-c1ccncc1 [Co. 14] | > 10000 | 832
47 | Nc1ncc(-c2ccc(C3CCOCC3)c([C@H]3CC(F)(F)CN3)c2)cc1-c1ccnc(F)c1 (single isomer, unassigned) [Co. 58] | > 10000 | 8710
48 | Nc1ncc(-c2ccc(C3CCOCC3)c([C@@H]3CCCN3)c2)cc1-c1ccncc1F [Co. 28] | 316 | 10.2
49 | Nc1ncc(-c2ccc(C3CCOCC3)c([C@@H]3COCCN3)c2)cc1Br [Co. 78] | 912 | 8.13
50 | Nc1ncc(-c2ccc(C3CCOCC3)c([C@@H]3CCCN3)c2)cc1-c1cn[nH]c1 [Co. 23] | 302 | 1.02
51 | Nc1ncc(-c2ccc(C3COC3)c([C@@H]3CCCN3)c2)cc1-c1ccnc(F)c1 [Co. 54] | > 10000 | 457
52 | Cc1cnccc1-c1cc(-c2ccc(C3CCOCC3)c(CN(C)C)c2)cnc1N [Co. 69] | – | 316

From US12492194B2, “HPK1 inhibitors” (Janssen Pharmaceutica NV, priority 2019, dated 2025)
